Consider 40 molecules from US20130040935A1, “CYCLIC KETO-ENOLS FOR THERAPY” (BAYER INTELLECTUAL PROPERTY GMBH, priority 2010, published 2013).

As usually defined, the IC50 is the concentration that gives 50% inhibition.

Structures are written as SMILES.

For one experiment, the target named is T1, human ACC1 (acetyl-coenzyme A carboxylase alpha transcript variant 1) (Homo sapiens, UniProt Q13085).
T1 construct: FLAG (C); made in house; host or cells: baculovirus-infected insect cells (Hi5)
Kind of experiment: Human ACC1 enzyme assay, Assay B1 (ADP-Glo).
Settings: not given
It is filed as biochemical. A general note: In ADP-Glo the light output rises with the ADP produced.
`Cc1ccc(-c2ccc(F)cc2)c(C)c1C1C(=O)N2CCOCCN2C1=O` [8-7, 8-(4′-fluoro-2,4-dimethylbiphenyl-3-yl)tetrahydro-7H-pyrazolo[1,2-d][1,4,5]oxadiazepine-7,9(8H)-dione] returned an IC50 of 6.21 µM. Take `Cc1ccc(-c2ccc(Cl)cc2)cc1C1C(=O)N2C3CCC(C3)N2C1=O` (stereo not shown) [8-16, 2-(4′-chloro-4-methylbiphenyl-3-yl)tetrahydro-1H-5,8-methanopyrazolo[1,2-a]pyridazine-1,3(2H)-dione]: inhibition was half-maximal at 0.593 µM (IC50).

In turn, `CCOC1CCC2(CC1)NC(=O)C(c1cc(-c3cccc(Cl)c3)ccc1C)=C2O` (stereo not shown) [1-79, 3-(3′-chloro-4-methylbiphenyl-3-yl)-8-ethoxy-4-hydroxy-1-azaspiro[4.5]dec-3-en-2-one] registered an IC50 of 2.32 µM. `Cc1ccc(-c2ccc(F)cc2)cc1C1=C(O)C2(CCCCC2)OC1=O` [2-21, 3-(4′-fluoro-4-methylbiphenyl-3-yl)-4-hydroxy-1-oxaspiro[4.5]dec-3-en-2-one] showed an IC50 of 0.874 µM. Same read-out and setting: under `Cc1ccc(-c2ccc(C)c(C3=C(O)C4(CCCOC4)NC3=O)c2)cc1` (stereo not shown) [1-14, 3-(4,4′-dimethylbiphenyl-3-yl)-4-hydroxy-7-oxa-1-azaspiro[4.5]dec-3-en-2-one] stands 3.07 µM; under `COC1CCCC2(C1)OC(=O)C(c1cc(-c3ccc(Cl)cc3)ccc1Cl)=C2O` (stereo not shown) [2-13, 3-(4,4′-dichlorobiphenyl-3-yl)-4-hydroxy-7-methoxy-1-oxaspiro[4.5]dec-3-en-2-one], 1.02 µM. `Cc1ccc(-c2cc(F)c(F)c(F)c2)cc1C1=C(O)C2(CCOCC2)NC1=O` [1-36, 4-hydroxy-3-(3′,4′,5′-trifluoro-4-methylbiphenyl-3-yl)-8-oxa-1-azaspiro[4.5]dec-3-en-2-one] had an IC50 of 1.5 µM. The same measure, in the same setting: then `Cc1ccc(-c2ccc(F)cc2)c(C)c1C1C(=O)N2CCCCN2C1=O` [8-1, 2-(4′-fluoro-2,4-dimethylbiphenyl-3-yl)tetrahydro-1H-pyrazolo[1,2-a]pyridazine-1,3(2H)-dione], with 3.56 µM; and `O=C1C(c2cc(-c3ccc(Cl)cc3Cl)ccc2Cl)C(=O)N2CCOCCN12` [8-9, 8-(2′,4,4′-trichlorobiphenyl-3-yl)tetrahydro-7H-pyrazolo[1,2-d][1,4,5]oxadiazepine-7,9(8H)-dione], with 0.682 µM; and `CC1(C)OC(=O)C(c2cc(-c3ccc(Cl)cc3)ccc2Cl)=C(O)C1(C)C` [10-1, 3-(4,4′-dichlorobiphenyl-3-yl)-4-hydroxy-5,5,6,6-tetramethyl-5,6-dihydro-2H-pyran-2-one], with 1.07 µM. The same measure, in the same setting: then `CO[C@H]1CC[C@]2(CC1)NC(=O)C(c1cc(-c3ccc(F)cc3)ccc1Cl)=C2O` [1-44, (5s,8s)-3-(4-chloro-4′-fluorobiphenyl-3-yl)-4-hydroxy-8-methoxy-1-azaspiro[4.5]dec-3-en-2-one], with 1.7 µM; and `O=C1C(c2cc(-c3ccc(Cl)c(Cl)c3)ccc2Cl)C(=O)N2CCOCCN12` [8-10, 8-(3′,4,4′-trichlorobiphenyl-3-yl)tetrahydro-7H-pyrazolo[1,2-d][1,4,5]oxadiazepine-7,9(8H)-dione], with 2.35 µM. As to `Cc1ccc(-c2ccc(Cl)cc2)cc1C1=C(O)C2(CCOCC2)OC1=O` [2-37, 3-(4′-chloro-4-methylbiphenyl-3-yl)-4-hydroxy-1,8-dioxaspiro[4.5]dec-3-en-2-one], half-maximal inhibition (IC50) required 1.05 µM. The molecule `Cc1ccc(-c2ccc(Cl)cc2)cc1C1=C(O)CN(C)C1=O` [1-16, 3-(4′-chloro-4-methylbiphenyl-3-yl)-4-hydroxy-1-methyl-1,5-dihydro-2H-pyrrol-2-one] displayed an IC50 of 0.241 µM. Regarding `Cc1ccc(-c2ccc(Cl)cc2)cc1C1=C(O)C(C)(C2CCCCC2)OC1=O` (stereo not shown) [2-40, 3-(4′-chloro-4-methylbiphenyl-3-yl)-5-cyclohexyl-4-hydroxy-5-methylfuran-2(5H)-one], the IC50 turned out to be 1.51 µM. The same measure, in the same setting: then `Cc1ccc(-c2ccc(Cl)cc2)cc1C1=C(O)C(C)(C)C(C)(C)OC1=O` [10-2, 3-(4′-chloro-4-methylbiphenyl-3-yl)-4-hydroxy-5,5,6,6-tetramethyl-5,6-dihydro-2H-pyran-2-one], with 0.76 µM; and `Cc1ccc(-c2ccc(Cl)cc2)cc1C1=C(O)C2(CCCOC2)OC1=O` (stereo not shown) [2-9, 3-(4′-chloro-4-methylbiphenyl-3-yl)-4-hydroxy-1,7-dioxaspiro[4.5]dec-3-en-2-one], with 2.22 µM; and `Cc1ccc(-c2ccc(Cl)cc2)cc1C1=C(O)CC(C)CC1=O` (stereo not shown) [7-1, 2-(4′-chloro-4-methylbiphenyl-3-yl)-3-hydroxy-5-methylcyclohex-2-en-1-one], with 0.932 µM. Still for that read-out and setting: under `O=C1C(c2cc(-c3ccc(F)cc3F)ccc2Cl)C(=O)N2CCOCCN12` [8-11, 8-(4-chloro-2′,4′-difluorobiphenyl-3-yl)tetrahydro-7H-pyrazolo[1,2-d][1,4,5]oxadiazepine-7,9(8H)-dione] stands 1.36 µM.

The experiment is the same for the next values; noted with them: Assay B1, ADP-Glo; read-out: ACC 1 (=B1) IC50.
Regarding `Cc1ccc(-c2ccc(Cl)cc2)cc1C1=C(O)C(C(C)(C)C)OC1=O` (stereo not shown) [2-35, 5-tert-butyl-3-(4′-chloro-4-methylbiphenyl-3-yl)-4-hydroxyfuran-2(5H)-one], the IC50 came out at 1.19 µM. On the same count and under the same terms, under `Cc1ccc(-c2ccc(F)c(Cl)c2)cc1C1=C(O)C2(CCCC2)OC1=O` [2-23, 3-(3′-chloro-4′-fluoro-4-methylbiphenyl-3-yl)-4-hydroxy-1-oxaspiro[4.4]non-3-en-2-one] stands 2.09 µM; under `O=C1OC2(CCCCC2)C(O)=C1c1cc(-c2ccc(F)c(F)c2)ccc1Cl` [2-25, 3-(4-chloro-3′,4′-difluorobiphenyl-3-yl)-4-hydroxy-1-oxaspiro[4.5]dec-3-en-2-one], 1.2 µM. Still for that read-out and setting: under `COC1CCC2(CC1)OC(=O)C(c1cc(-c3ccccc3Cl)ccc1C)=C2O` (stereo not shown) [2-7, 3-(2′-chloro-4-methylbiphenyl-3-yl)-4-hydroxy-8-methoxy-1-oxaspiro[4.5]dec-3-en-2-one] stands 2.71 µM. As to `Cc1ccc(-c2ccc(F)c(F)c2)cc1C1=C(O)C2(CCCC2)OC1=O` [2-22, 3-(3′,4′-difluoro-4-methylbiphenyl-3-yl)-4-hydroxy-1-oxaspiro[4.4]non-3-en-2-one], the IC50 worked out at 2.23 µM. `O=C1OC2(CCCC2)C(O)=C1c1cc(-c2cc(F)c(F)c(F)c2)ccc1Cl` [2-24, 3-(4-chloro-3′,4′,5′-trifluorobiphenyl-3-yl)-4-hydroxy-1-oxaspiro[4.4]non-3-en-2-one]: the IC50 amounted to 2.09 µM.

The experiment is the same for the next values; noted with them: Assay B1; read-out: ACC 1 (=B1) IC50.
As for `CN1C(=O)C(c2cc(-c3ccc(Cl)cc3)ccc2Cl)C(=O)N1C` [8-15, 4-(4,4′-dichlorobiphenyl-3-yl)-1,2-dimethyl-1H-pyrazole-3,5(2H,4H)-dione], the IC50 stood at 5.6 µM. On the same count and under the same terms, then `O=C1C(c2cc(-c3ccc(F)c(Cl)c3)ccc2Cl)C(=O)N2CCCCN12` [8-4, 2-(3′,4-dichloro-4′-fluorobiphenyl-3-yl)tetrahydro-1H-pyrazolo[1,2-a]pyridazine-1,3(2H)-dione], with 3.92 µM; and `COCCC1(C)NC(=O)C(c2cc(-c3ccc(Cl)cc3)ccc2C)=C1O` (stereo not shown) [1-47, 3-(4′-chloro-4-methylbiphenyl-3-yl)-4-hydroxy-5-(2-methoxyethyl)-5-methyl-1,5-dihydro-2H-pyrrol-2-one], with 3.19 µM; and `Cc1ccc(-c2ccc(C)c(C3=C(O)C4(CCOCC4)NC3=O)c2)cc1` [1-15, 3-(4,4′-dimethylbiphenyl-3-yl)-4-hydroxy-8-oxa-1-azaspiro[4.5]dec-3-en-2-one], with 0.522 µM. As to `Cc1ccc(-c2ccc(Cl)cc2)cc1C1C(=O)N2CCOCCN2C1=O` [8-6, 8-(4′-chloro-4-methylbiphenyl-3-yl)tetrahydro-7H-pyrazolo[1,2-d][1,4,5]oxadiazepine-7,9(8H)-dione], the IC50 came to 1.28 µM. Regarding `Cc1ccc(-c2ccc(F)cc2F)cc1C1C(=O)N2CCOCCN2C1=O` [8-5, 8-(2′,4′-difluoro-4-methylbiphenyl-3-yl)tetrahydro-7H-pyrazolo[1,2-d][1,4,5]oxadiazepine-7,9(8H)-dione], the IC50 worked out at 6.94 µM. The same measure, in the same setting: under `Cc1ccc(-c2ccc(F)c(F)c2)cc1C1=C(O)C2(CCOCC2)NC1=O` [1-37, 3-(3′,4′-difluoro-4-methylbiphenyl-3-yl)-4-hydroxy-8-oxa-1-azaspiro[4.5]dec-3-en-2-one] stands 0.85 µM; under `Cc1ccc(-c2ccc(Cl)cc2)cc1C1=C(O)CN(CC(C)C)C1=O` [1-27, 3-(4′-chloro-4-methylbiphenyl-3-yl)-4-hydroxy-1-(2-methylpropyl)-1,5-dihydro-2H-pyrrol-2-one], 1.94 µM; under `Cc1ccc(-c2ccc(F)cc2)cc1-c1c(O)c2ccc(F)cc2[nH]c1=O` [9-9, 7 fluoro-3-(4′-fluoro-4-methylbiphenyl-3-yl)-4-hydroxyquinolin-2(1H)-one], 2.94 µM.

In the case of `Cc1ccc(-c2ccc(Cl)cc2)cc1C1C(=O)N2CCCCN2C1=O` [8-3, 2-(4′-chloro-4-methylbiphenyl-3-yl)tetrahydro-1H-pyrazolo[1,2-a]pyridazine-1,3(2H)-dione], the IC50 came to 1.05 µM. Still for that read-out and setting: then `Cc1ccc(-c2ccc(Cl)c(C3=C(O)C4(CCOCC4)NC3=O)c2)cc1F` [1-39, 3-(4-chloro-3′-fluoro-4′-methylbiphenyl-3-yl)-4-hydroxy-8-oxa-1-azaspiro[4.5]dec-3-en-2-one], with 1.98 µM; and `Cc1ccc(-c2ccc(Cl)cc2)cc1-c1c(O)c2ccccc2[nH]c1=O` [9-5, 3-(4′-chloro-4-methylbiphenyl-3-yl)-4-hydroxyquinolin-2(1H)-one], with 0.661 µM. Consider `Cc1ccc(-c2ccc(Cl)cc2)cc1-c1c(O)c2ccc(F)cc2[nH]c1=O` [9-8, 3-(4′-chloro-4-methylbiphenyl-3-yl)-7-fluoro-4-hydroxyquinolin-2(1H)-one], for which the IC50 worked out at 0.174 µM. The same measure, in the same setting: under `Cc1ccc(-c2ccc(Cl)cc2)cc1C1C(=O)N2CC(C)(F)CN2C1=O` [8-12, 2-(4′-chloro-4-methylbiphenyl-3-yl)-6-fluoro-6-methyldihydro-1H,5H-pyrazolo[1,2-a]pyrazole-1,3(2H)-dione] stands 0.783 µM; under `O=C1C(c2cc(-c3ccc(Cl)cc3)ccc2Cl)C(=O)N2C3CCC(C3)N12` (stereo not shown) [8-17, 2-(4,4′-dichlorobiphenyl-3-yl)tetrahydro-1H-5,8-methanopyrazolo[1,2-a]pyridazine-1,3(2H)-dione], 1.45 µM.
